Key:
[1] = test system: Plasmodium falciparum; experiment: NOVARTIS: Inhibition of Plasmodium falciparum 3D7 (drug-susceptible) proliferation in erythrocyte-based infection assay; assay type: functional, organism-based; conditions: Plasmodium falciparum, 3D7
[2] = test system: Plasmodium falciparum; experiment: NOVARTIS: Inhibition of Plasmodium falciparum W2 (drug-resistant) proliferation in erythrocyte-based infection assay; assay type: functional, organism-based; conditions: Plasmodium falciparum, W2; read-out: EC50
[3] = NOVARTIS: Cytotoxicity against human hepatocellular carcinoma cell line (Huh7); assay type: toxicity, cell-based, Huh-7; conditions: Huh7 cells (hepatocellular carcinoma cell line)

Compound | EC50 [1] [nM] | EC50 [2] [nM] | CC50 [3] [µM]
CC(C)(C)NC(=O)C(c1ccc(F)cc1)N(CCCN1CCOCC1)C(=O)c1ccc(-c2ccccc2)[nH]1 (centres undefined) | 1010 | 562 | > 10
CCc1ccccc1NC(C)=O | > 12500 | 5410 | > 100
CCC(c1nc2ccccc2c(=O)n1-c1ccc(Br)cc1)N(CCc1ccccc1)C(=O)c1cccc(C(F)(F)F)c1 (centres undefined) | 871 | 545 | > 10
COc1c(N2CCN(Cc3c(C)cc(C)cc3C)CC2)c2nc3oc2c2c(OC(=O)C(C)(C)C)c(C)c4c(c12)[C@@H](O)[C@@](C)(OC=C[C@H](OC)[C@@H](C)[C@@H](OC(C)=O)C(C)[C@H](O)[C@H](C)[C@@H](O)C(C)C=CC=C3C)O4 (some centres undefined) | 221 | 554 | > 10
Cc1c[n+](Cc2ccccc2)ccc1/C=C/c1ccccc1 | 502 | 543 | > 10
COc1ccc(/C=C2\SC(=Nc3ccc(F)cc3)NC2=O)c(OC)c1 | 270 | 543 | > 10
CN(C)CCNC(=O)COc1ccc(-c2nc3ccccc3s2)cc1CN(C)C | 622 | 557 | > 10
CC(C)N1CC[C@@H](N2CCN(c3cccc(C(F)(F)F)c3)CC2)[C@@H](CCC(=O)N(C)C2CCN(C)CC2)C1 | > 1040 | 285 | 5.13
O=C(NN=CC1CC=CCC1)c1ccc([N+](=O)[O-])cc1Cl (centres undefined) | > 1250 | > 549 | > 10
NNC(=O)C1CCCN1S(=O)(=O)c1ccc(Cl)cc1 (centres undefined) | 564 | 547 | > 10
COc1cc(C(=O)N2CCN(Cc3cccc(Br)c3)CC2)cc(OC)c1OC | > 12500 | 5580 | > 100
CC1=C(C(=O)Nc2ccccn2)C(c2ccc(O)cc2)n2ncnc2N1 (centres undefined) | > 1250 | 561 | > 10
Cc1sc2nc(C3CC3)n(C3CCN(C(=O)C4CC=CCC4)CC3)c(=O)c2c1C (centres undefined) | > 1250 | > 560 | > 10
COc1cc(/C=C(\C#N)c2nc3ccccc3[nH]2)ccc1OCc1ccc(Cl)cc1 | 321 | 558 | > 10
CCOC(=O)C1=NNC2C(=O)N(c3cccc(C)c3C)C(=O)C12 (centres undefined) | > 1250 | 563 | > 10
CCCC(=O)N1CCN(C(=O)c2nc(-c3ccccc3)nc(C(C)C)c2C(=O)OC)CC1C (centres undefined) | 880 | 475 | > 8.44
COc1ccc(N(CC(=O)NCCc2ccc(F)cc2)S(=O)(=O)c2ccccc2)cc1 | > 12500 | 5620 | > 100
CCOc1ccc2c(c1)sc(=NC(=O)Nc1ccc(OC)cc1)n2C | > 8300 | 997 | 17.8
CCOc1ccccc1-n1c(SCC(=O)c2ccc(Cl)cc2)nc2[nH]ncc2c1=O | > 12500 | 4020 | 73
CCN1CCC(N2C[C@H](n3cc(C(=O)OC)nn3)C[C@H]2C(=O)NCc2cccc(C(F)(F)F)c2)CC1 | > 1250 | > 563 | > 10
O=C(C1CCCCN1)N1CC(c2ccccc2)c2ccccc2C1CN1CCCCC1 (centres undefined) | 439 | 257 | 4.68
Cc1ccccc1OCC(O)Cn1c(NC2CCCCC2)nc2c1c(=O)[nH]c(=O)n2C (centres undefined) | > 1700 | 549 | > 10
O=C(Nc1ccc2c(c1)CN(C1CCSCC1)CC2)C1(c2ccccc2)CC1 | > 12500 | > 5530 | > 100
COc1ccc(C(=O)N(C)CCCNc2ccnc3cc(Cl)ccc23)cc1 | 797 | 553 | > 10
CCN1/C(=C/c2sc3ccc(OC)cc3[n+]2CC)C=Cc2cc(OC)ccc21 | 527 | 552 | > 10
O=C1NC(=O)C(Cc2ccc(S(=O)(=O)N3CCN(c4ccccc4)CC3)cc2)S1 (centres undefined) | 790 | 5430 | > 100
Cc1cc(/C=C2\SC(=Nc3ccccc3)N(C3CCCCC3)C2=O)c(C)n1-c1ccc(Br)cc1 | 476 | > 542 | > 10

Compound | EC50 [1] [nM] | EC50 [2] [nM] | CC50 [3] [µM]
CCOC(=O)C1=C(N)N(c2cccc([N+](=O)[O-])c2)C2=C(C(=O)CC(C)(C)C2)C1c1ccc(Cl)cc1 (centres undefined) | 6140 | 5550 | > 100
COc1cc(NC(C)CCCN(Cc2ccccc2OC)C(=O)C(Cl)Cl)c2ncccc2c1 (centres undefined) | > 1500 | 554 | > 10
COc1ccc(Cn2c(-c3ccc(Cl)cc3)c[n+]3ccccc23)cc1 | 693 | 541 | > 10
CCN(CC)c1scc(-c2ccc(Br)cc2)[s+]1 | 349 | 541 | > 10
CC(=O)c1ccc(NC(=O)CN(C)S(=O)(=O)c2ccc3[nH]c4c(c3c2)CCCC4)cc1 | > 12500 | 3580 | 66.9
CCC(CC)=NNC(=O)C(=O)NC1CCCCC1 | 231 | 535 | > 10
COc1cc(CNNc2nc3cc(Cl)ccc3[nH]2)cc(OC)c1OC | 308 | 541 | > 10
COc1cccc(OCCN2CCN(c3ncnc4c3cnn4-c3ccccc3)CC2)c1 | 6250 | 4050 | > 75.7
CCOCCCNC(=O)c1cc(NC(=O)c2ccc(Cl)c([N+](=O)[O-])c2)ccc1N1CCCCC1 | > 1250 | 77 | 1.43
COc1ccc(-n2nc(C(C)(C)C)cc2NC(=O)CN(C(=O)c2ccc(C(C)(C)C)cc2)C(C)C)cc1 | 1680 | 1850 | 34.6
COc1ccccc1Nc1nc(NCC2CCCO2)c2ccccc2n1 (centres undefined) | 1040 | 1570 | 29.4
O=C(NCCCCNc1ccnc2cc(Cl)ccc12)C(c1ccccc1)c1ccccc1 | 730 | 440 | > 8.21
CCC(=O)NCc1nnc(SCc2cccc(C(F)(F)F)c2)n1-c1cccc(OC)c1 | > 12500 | 5610 | > 100
CCCCCCN(C(=O)c1cccc([N+](=O)[O-])c1)C(CC)c1nc2ccccc2c(=O)n1-c1ccccc1OC (centres undefined) | 983 | 355 | > 6.45
C=CC[n+]1ccc(/C=C/c2ccccc2)c(C)c1 | 656 | 558 | > 10
CC(C)CCNc1ncc(C(=O)NCC(C)C)c(NCCc2ccccc2)n1 | 724 | 543 | > 10
CCOc1cc(S(=O)(=O)N2CCCC3(CCCCC3)C2)c(OCC)cc1-n1cnnn1 | > 1250 | > 563 | > 10
CCCCCCN(C(=O)c1ccc2ccccc2c1)C(CC)c1nc2ccccc2c(=O)n1-c1ccc(F)cc1 (centres undefined) | 454 | 548 | > 10
COC(=O)C[S+]([O-])c1ccccc1 (centres undefined) | 647 | 543 | > 10
Cc1cc(/C=C2/SC(=Nc3ccccc3)NC2=O)c(C)n1-c1cccc([N+](=O)[O-])c1 | 395 | 556 | > 10
C[n+]1cccc(/C=C2/c3ccccc3-c3ncccc32)c1 | 809 | 555 | > 10
CCN(CC)CCCNC(=S)N(Cc1ccccc1)Cc1cc2cc(C)c(Cl)cc2[nH]c1=O | 1940 | 1160 | 20.9
CCc1c(C(=O)N2CCN(C(=O)CCl)C(C)C2)cnn1-c1nc(-c2ccc(Br)cc2)cs1 (centres undefined) | 656 | 481 | > 8.66
Cc1ccc(CN=C(N)Nc2nc(C)cc(C)n2)cc1 | 653 | 609 | 11.2
Sc1nc2ccc3nsnc3c2[nH]1 | 713 | 537 | > 10
CCc1cc2c(Sc3nnc(N)s3)ncnc2s1 | 546 | 540 | > 10
